For orientation: melting point means the temperature, or range, at which the solid turns liquid. For orientation: IC50 means the point on the concentration scale where inhibition reaches its midpoint.

Each structure is given as a SMILES string. Where only a bound is given, the exact number is not on record here.

This passage reports melting point and IC50 results from patent US7968556B2, “Heteroaryl compounds, compositions thereof, and methods of treatment therewith” (Signal Pharmaceuticals, LLC, priority 2006, dated 2011).

The target of one data set is T1, IKK-2 (Homo sapiens, UniProt O14920, S177E/S181E).
T1 sequence (O14920 1-756 S177E/S181E): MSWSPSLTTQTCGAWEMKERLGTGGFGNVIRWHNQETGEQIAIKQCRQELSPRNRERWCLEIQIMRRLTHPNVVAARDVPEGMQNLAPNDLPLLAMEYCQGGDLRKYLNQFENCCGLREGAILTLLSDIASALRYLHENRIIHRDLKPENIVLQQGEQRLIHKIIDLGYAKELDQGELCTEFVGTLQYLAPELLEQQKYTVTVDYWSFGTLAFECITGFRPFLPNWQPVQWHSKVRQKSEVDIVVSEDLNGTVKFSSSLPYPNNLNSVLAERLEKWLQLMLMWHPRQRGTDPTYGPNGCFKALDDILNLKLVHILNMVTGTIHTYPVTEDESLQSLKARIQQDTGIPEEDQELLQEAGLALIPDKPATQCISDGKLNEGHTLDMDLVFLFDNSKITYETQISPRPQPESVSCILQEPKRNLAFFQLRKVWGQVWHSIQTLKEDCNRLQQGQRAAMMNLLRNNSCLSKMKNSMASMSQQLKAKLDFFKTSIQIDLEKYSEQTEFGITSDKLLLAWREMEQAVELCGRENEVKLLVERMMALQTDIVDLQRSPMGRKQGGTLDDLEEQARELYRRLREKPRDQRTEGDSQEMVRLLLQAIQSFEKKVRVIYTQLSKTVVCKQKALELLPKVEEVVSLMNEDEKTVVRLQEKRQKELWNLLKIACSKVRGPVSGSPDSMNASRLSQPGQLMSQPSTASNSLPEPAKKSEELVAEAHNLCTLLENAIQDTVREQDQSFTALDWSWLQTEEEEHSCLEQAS
Put plainly: IKK-2 screening assay (IKK2EE 33P Assay / IKK2EE NEMO HTRF Assay). The format is biochemical. The procedure: The following is an example of an assay that can be used to determine the IKK2EE inhibitory activity of a test compound.
A reaction buffer (pH 7.8) is prepared containing HEPES (20 mM), MgCl2 (10 mM), EDTA (0.1 mM), DTT (1 mM) and Triton X-100 (0.004%). IKK2EE (0.75 μg/ml is used. GST-IKBα (50 μg/ml) is used as substrate. Adenosine 5′-triphosphate (1.5 μM with ^33P-ATP 5 nCi/μl) is used. Reactions are stopped with trichloroacetic acid (6.25%).
Appropriate amounts of test compounds or controls in 100% DMSO are added to the assay plate. A peptide-substrate solution (PSS) is prepared by adding peptide stock to an appropriate volume of buffer (peptide concentration in the PSS will be about 100 μg/ml). An enzyme-peptide solution (EPS) is prepared by adding enzyme stock to an appropriate volume of PSS (the enzyme concentration in the EPS will be about 1 μg/ml). An ATP solution is prepared by adding ATP stock to an appropriate volume of buffer (the ATP concentration will be 15 μM).
85 μl of EPS is added to the assay wells (or PSS to positive control wells) of 96 well polypropylene plates. The ATP solution is then completed by adding ^33P-ATP (to a final concentration of 50 μCi/ml).
The reaction is initiated by adding 10 μl ATP solution to each well. Plates are shaken from about 12 seconds and allowed to incubate at room temperature for 1 hours. 100 μl of trichloroacetic acid solution (12.5%) is added to stop the reaction and the plates are incubated at room temperature for at least 10 minutes. The assay plates are harvested onto a Millipore Multiscreen harvest Plate FC using an appropriate harvester and the harvest plates are washed with 1×PBS solution for about 10 seconds (continuous flow). Harvest plates are allowed to dry thoroughly and the bottoms of the plates are sealed. 20-50 μl of Microscint20 is added to each well, tops are sealed and plates are read using an appropriate scintillation counter.
A reaction buffer (pH 7.6) is prepared containing HEPES (20 mM), MgCl2 (10 mM), EDTA (0.05 mM), DTT (1 mM) and Triton X-100 (0.004%). IKK2EE-NEMO (0.7 μg/ml is used. GST-IKBα (0.5 μg/ml) is used as substrate. Adenosine 5′-triphosphate (1.5 μM) is used. Detection reagents used are mouse anti-P-IKBα (30 ng/ml), Eu anti-mouse (300 ng/ml) and Cy5 anti-GST (11.5 μg/ml). Reactions are stopped with EDTA (20 mM).
An enzyme solution (ES) is prepared by adding enzyme stock to an appropriate volume of buffer (enzyme concentration in the ES will be about 1.7 ng/ml). A detection mixture (DM) is prepared by adding ATP (final conc. 3.75 μM), mouse anti-P-IKBα (final conc. 75 ng/ml), GST-IKBα (final conc. 1.26 μg/ml), Eu anti-mouse in buffer (final conc. 750 ng/ml).
5 μl of compound (solvated in 10% DMSO) is added to assay wells (or 10% DMSO to control wells) of low binding reaction plates. […] ES is added to assay wells (or buffer to control wells) and the reaction is initiated by adding 10 μl DM to all wells. Plates are incubated at room temperature for 45 minutes. Stop mixture is prepared by adding EDTA (final conc. 70 mM) and Cy5 anti-GST (final conc. 40 μg/ml) to an appropriate volume of buffer. Stop mixture is added and plates are shaken for 20 seconds and incubated at room temperature for at least 3 hours (preferably in the dark). Plates are read on an Analyst HT using Multi-Method HTRF.
(In general: In TR-FRET formats the signal depends on donor and acceptor labels being close together.)

The target of a further data set is mTOR (Homo sapiens, UniProt P42345). Put plainly: mTOR HTR-FRET Assay. The format is biochemical. As to the method:
The following is an example of an assay that can be used to determine the mTOR inhibitory activity of a test compound. Reagents are prepared as follows:
“Simple TOR buffer” (used to dilute high glycerol TOR fraction): 10 mM Tris pH 7.4, 10 mM NaCl, 0.1% Tween-20, 1 mM DTT (from 1M stock frozen at −20° C. just prior to use). For convenience a large quantity of “Simple TOR buffer” w/o DTT can be stored at 4° C. It can be brought to room temperature and DTT added just prior to dilution of TOR fraction.
5XKB/5XMn/5×ATP solution (used to dilute substrate GST-p70S6kin 81 a.a. just prior to use) (40 ml screen quantity shown):
Enzyme solution: Dilute TOR fraction 1:14 in “Simple TOR Buffer”. For current lot that is 640 μg/ml TOR fraction diluted 14× to yield 45.7 μg/ml TOR in buffer (i.e. 7.85 ml TOR pooled fraction+102.1 ml Simple TOR buffer=110 ml 14× diluted TOR fraction). Each Enzyme Lot must be QC'd prior to assay.
Substrate solution: This may be prepared just prior to assay if preferred. Dilute 5.3 mg/ml GST-p70S6kinase fragment stock to 3.5 μg/ml (97 nM) working stock in 5XKB/5XMn/5×ATP solution (i.e. 26.41 μL (5.3 mg/ml) GST-p70S6+40 ml 5XKB/5XMn/5×ATP=40 ml 3.5 μg/ml (97 nM)).
Assay Buffer (for dilution of Antibodies used in Antibody Detection Reagent):
Antibody Detection Reagent (this reagent should be made just prior to addition to Assay Plates):
Using PlateTrak program (Screen) or Matrix Pipettor (SAR), 19.5 μL of diluted TOR fraction is added to assay plate in all test, reference or positive control wells. 19.5 μL of “Simple TOR buffer” is added to all negative control wells. If treating multiple plates with the same compounds, can increase volume of enzyme to multiples of 19.5 μL in a tall 384 well polypropylene plate.
Using EP3, 0.5 μl of test, reference or control DMSO is added to each well with mixing. Plates are incubated for 30 minutes at room temperature.
Using PlateTrak program (Screen) or Matrix Pipettor (SAR) 5 μL of 5XKB/5XMn/5×ATP/5× substrate solution is added to each well of the assay plate to start the reaction. The solutions are mixed well and incubated for 2 hours at room temperature.
Using PlateTrak program (Screen) or Matrix Pipettor (SAR) 5 μL of 60 mM EDTA is added to stop the reaction. The solutions are mixed well and allowed to sit for 15-20 minutes before the next step.
Using PlateTrak program (Screen) or Matrix Pipettor (SAR) 10 μl of Antibody Detection Reagent is added. The solutions are mixes well and incubated for 5 hours to O/N to allow antibodies to form complexes with phosphorylated substrate.
Plates are read on AnalystHT using protocol Multi-Method protocol.

The molecule `NC(=O)c1nc(-c2cccnc2)nc2c1NC(=O)CN2c1ccccc1` [Compound 36, 6-oxo-8-phenyl-2-(pyridin-3-yl)-5,6,7,8-tetrahydropteridine-4-carboxamide] showed a melting point of 294 to 296 °C. This molecule had an IC50 against IKK-2 above 30 µM. The molecule further displayed an IC50 against mTOR above 30 µM.

Molecule `N#Cc1cccc(-c2nc(C(N)=O)c3[nH]c(=O)n(-c4ccccc4)c3n2)c1` [Compound 27, 2-(3-cyanophenyl)-8-oxo-9-phenyl-8,9-dihydro-7H-purine-6-carboxamide] registered a melting point of 328 to 330 °C. The molecule also gave a concentration for half-maximal inhibition (IC50) on IKK-2 above 30 µM. On mTOR, this molecule came in with an IC50 of 10.1 to 20 µM.

`NC(=O)c1nc(-c2ccncc2)nc2c1NC(=O)CN2c1ccccc1` [Compound 37, 6-oxo-8-phenyl-2-(pyridin-4-yl)-5,6,7,8-tetrahydropteridine-4-carboxamide]: the melting point was in the range of 298 to 304 °C. Also, at IKK-2, the half-maximal inhibitory concentration (IC50) was above 30 µM. At mTOR, this molecule had a concentration for half-maximal inhibition (IC50) of 10.1 to 20 µM.

Molecule `COc1ccccc1-n1c(=O)[nH]c2c(C(N)=O)nc(-c3cccc4[nH]ccc34)nc21` [Compound 10, 2-(1H-indol-4-yl)-9-(2-methoxyphenyl)-8-oxo-8,9-dihydro-7H-purine-6-carboxamide] had a melting point of 312 to 313 °C. The molecule also yielded a concentration for half-maximal inhibition (IC50) against IKK-2 above 30 µM. This molecule yielded an IC50 at mTOR of 5.1 to 10 µM.

Regarding `COc1ncccc1-c1nc(C(N)=O)c2[nH]c(=O)n(-c3ccccc3)c2n1` [Compound 5, 2-(2-methoxypyridin-3-yl)-8-oxo-9-phenyl-8,9-dihydro-7H-purine-6-carboxamide], the melting point was 279 to 281 °C. Further, the IC50 against IKK-2 was above 30 µM. In addition, the IC50 against mTOR was above 30 µM.

As for `NC(=O)c1nc(-c2cccnc2)nc2c1[nH]c(=O)n2Cc1ccccc1` [Compound 1, 9-benzyl-8-oxo-2-(pyridin-3-yl)-8,9-dihydro-7H-purine-6-carboxamide], the melting point lay within 334 to 335 °C. Moreover, at IKK-2, the IC50 was above 30 µM. The molecule further returned an IC50 against mTOR of 10.1 to 20 µM.

For `NC(=O)c1nc(-c2cccc(O)c2)nc2c1[nH]c(=O)n2-c1ccccc1Cl` [Compound 14, 9-(2-chlorophenyl)-2-(3-hydroxyphenyl)-8-oxo-8,9-dihydro-7H-purine-6-carboxamide], the melting point fell in the range of 360 to 364 °C. At IKK-2, this molecule yielded an IC50 above 30 µM. On mTOR, this molecule came in with an IC50 of 0.1 to 5 µM.

As for `COc1ccc(-n2c(=O)[nH]c3c(C(N)=O)nc(-c4cccc(O)c4)nc32)cc1` [Compound 12, 2-(3-hydroxyphenyl)-9-(4-methoxyphenyl)-8-oxo-8,9-dihydro-7H-purine-6-carboxamide], the melting point fell in the range of 386 to 388 °C. For the same molecule, on IKK-2, the IC50 fell in the range of 20.1 to 30 µM. The molecule further gave an IC50 against mTOR of 0.1 to 5 µM.

`CNC(=O)c1nc(-c2cccnc2)nc2c1[nH]c(=O)n2-c1ccccc1` [Compound 2, N-methyl-8-oxo-9-phenyl-2-(pyridin-3-yl)-8,9-dihydro-7H-purine-6-carboxamide]: the melting point is above 330 °C. At IKK-2, this molecule displayed an IC50 above 30 µM. This molecule yielded an IC50 at mTOR above 30 µM.
